# Test results from PubChem BioAssay AID1996.
# Details: buffer; pH 7.4; 200.0 µM
row,Compound,solubility kinetic [µg/mL]
1,O=C(NCCc1c[nH]c2ccccc12)C(=O)c1c[nH]c2ccccc12,4.2
2,Cc1ccc(-c2c(C)n([O-])c3c([n+]2=O)CCCC3)cc1,> 40.5
3,Cc1cccc(NC(=O)NCC2CC2)c1,> 30.6
4,Cc1c(NS(=O)(=O)c2cccc(C(=O)N3CCC(C(N)=O)CC3)c2)c(=O)n(-c2ccccc2)n1C,> 74.6
5,O=c1c2[nH]c3ccccc3c2nc2n1CCS2,4.5
6,Cc1c(C)n(-c2ccccc2)c2ncnc(NCCCN(C)C)c12,> 48.5
7,O=[N+]([O-])c1cc(CN2CCCCCC2)ccc1O,33.3
8,Cn1cccc1/C=C(\C#N)C(N)=S,28.1
9,CN(C)S(=O)(=O)c1ccc(NC=O)cc1,> 34.2
10,COCCn1c(C)cc(C(=O)COC(=O)/C=C/c2ccc(OC)cc2OC)c1C,2.7
11,N#Cc1cc(C#N)c(SCC(=O)NCC2CCCO2)nc1N (stereo not given),> 47.6
12,COc1ccc(N2CC(C(=O)NCc3ccco3)CC2=O)cc1 (stereo not given),32.2
13,CCCn1c(=O)cc(N)n(-c2ccc(OC(F)(F)F)cc2)c1=O,> 49.4
14,COc1ccc(OC)c(S(=O)(=O)N2CCN(C)CC2c2ccccc2)c1 (stereo not given),> 56.5
15,Cc1ccc(NC(=O)CCl)c(C)c1,> 29.7
16,O=C1COc2ccc(C(=O)COc3ccc([N+](=O)[O-])cc3)cc2N1,0.8
17,O=C(Nc1cccc(S(=O)(=O)NC2=NCCC2)c1)c1ccccc1,> 51.5
18,COC(=O)NC(C)N1C(=O)C2C3C=CC(C3)C2C1=O (stereo not given),> 39.6
19,COc1ccc(Nc2c3c(nc4ccccc24)CCC3)c(OC)c1,> 48.1
20,O=C(NCC1CCCO1)c1cc2c(s1)CCC2 (stereo not given),> 37.7
21,CN(C(=O)C(Cl)Cl)C1CC2C=CC1C2 (stereo not given),30.7
22,Cl.O=C(NCCN1CCOCC1)c1ccc(S(=O)(=O)Nc2ccccc2)cc1,> 63.9
23,CCN(Cc1ccccc1)C(=O)c1cc2c(OC)c(OC)c(OC)cc2[nH]1,31.8
24,FC(F)(F)c1ccccc1-c1nc(-c2ccncc2)no1,7.6
25,COCCCNc1nc(N)c([N+](=O)[O-])c(NCC2CCCO2)n1 (stereo not given),> 49
26,Cc1cccc(-c2noc(CN(C)C(=O)c3ccco3)n2)c1,> 44.6

# Continued, values first:
row,solubility kinetic [µg/mL],Compound
1,3,CC1(C)CC(=O)C2=C(C1)Nc1ccccc1S2
2,3.8,O=S(=O)(c1ccccc1)N1CN(c2ccc(F)cc2F)c2nc3ccccc3nc21
3,> 59.3,COCCN(Cc1ccccc1)C(=O)C1CCN(C(=O)Nc2ccccc2)CC1
4,1.2,Cc1cc(NC(=O)CSc2ncc(C(F)(F)F)cc2Cl)no1
5,31.9,O=C(Nc1ccc2[nH]ccc2c1)c1ccccc1
6,49.9,CCOC(=O)c1c(/N=C/c2cccc([N+](=O)[O-])c2O)sc2c1CCC2
7,5.1,O=C(COC(=O)/C=C/c1ccc(F)cc1)NCc1ccco1
8,> 42.9,NS(=O)(=O)c1ccc(NC(=O)CCCC(=O)O)cc1
9,5.3,Brc1ccc(OCc2cn3ccccc3n2)cc1
10,> 52.1,CC(C(=O)O)N1C(=O)C2C3c4ccccc4C(c4ccccc43)[C@@H]2C1=O (stereo not given in full)
11,> 50.3,CCOCCCNc1ccc(N2C(=O)CCCC2=O)cc1[N+](=O)[O-]
12,1.6,O=C(c1cc([N+](=O)[O-])ccc1Cl)N1CCc2ccccc21
13,3.7,CC1CCCCC12NC(=O)N(CC(=O)N1CCc3ccccc31)C2=O (stereo not given)
14,> 44.4,CC(=O)N/C(=C\c1ccccc1)C(=O)Nc1ccc(O)cc1
15,47.7,Cc1[nH]c2ccccc2c1CCNC(=O)CCC(=O)c1ccccc1
16,5.2,O=C(Oc1c(-c2ccccc2)c(=O)n2c3c(cccc13)CC2)c1cccc([N+](=O)[O-])c1
17,> 37.7,Cc1ccc(N2C(=O)Cc3ccccc3C2=O)cc1

row,solubility kinetic [µg/mL],Compound
1,> 51.2,COc1ccccc1OCC(=O)Nc1ccc2c(c1)n(C)c(=O)n2C
2,> 39.2,CSC1=NC2(C)CCCCC2C12C=CC(=O)C=C2 (stereo not given)
3,> 44.3,O=C(CCc1ccccc1)NCC1OCCc2ccccc21 (stereo not given)
4,> 42.4,Cc1ccc(C(=O)N2CCN(c3ncccn3)CC2)cc1
5,> 45.1,O=C(CSc1ccccn1)Nc1ccc2[nH]c(=O)[nH]c2c1
6,3.8,Cc1cccc(NC(=O)C2CC2c2ccccc2)c1C (stereo not given)
7,47.5,COc1ccccc1N(CC1CO1)S(=O)(=O)c1ccc(C)cc1 (stereo not given)
8,50.9,CN(C)S(=O)(=O)c1ccc(NC(=O)CN2CCCCCC2)cc1
9,> 50.5,Cc1cccc(NC(=O)Nc2c(C)n(C)n(-c3ccccc3)c2=O)c1
10,0.4,O=[N+]([O-])c1ccc(N2CCN(c3cccc(Cl)c3)CC2)nc1
11,> 30.5,CCCNc1nc2ccccc2c(=O)[nH]1
12,36.4,CC(C)=CCN1CCN(Cc2ccc(C)s2)CC1CCO (stereo not given)
13,> 51.1,COc1ccc(S(=O)(=O)NC(C)C(=O)N2CCCCCC2)cc1 (stereo not given)
14,1.2,COc1ccc(Cn2c(=O)oc3ccc(C)cc32)cc1
15,> 38.3,Cc1cccc(OCC(=O)NCc2ccccc2)c1
16,9.6,CC(Cl)C(=O)c1ccc2c(c1)CCN2C(=O)C1CC1 (stereo not given)
17,> 47.5,CC(CN1CCN(C)CC1)OC(=O)c1cccc(F)c1.Cl (stereo not given)
